Results as given in patent US6271238A, “Acetamide derivatives and protease inhibitors” (Nippon Kayaku Kabushiki Kaisha, priority 1996, dated 2001).
Structures can show the parent of a compound that is named as a salt. Where two headings read alike, the source gives them in different places.

Tests used:
Type in all cases: biochemical
rat chymase = molecular target: T1, rat chymase (Rattus norvegicus, UniProt P09650); test: Inhibitory activity on rat chymase (synthetic substrate)
T1 construct: 50 g rat tongue was finely divided by scissors and a scalpel; from tissue; host or cells: rat tongue
T1 sequence (P09650 21-260): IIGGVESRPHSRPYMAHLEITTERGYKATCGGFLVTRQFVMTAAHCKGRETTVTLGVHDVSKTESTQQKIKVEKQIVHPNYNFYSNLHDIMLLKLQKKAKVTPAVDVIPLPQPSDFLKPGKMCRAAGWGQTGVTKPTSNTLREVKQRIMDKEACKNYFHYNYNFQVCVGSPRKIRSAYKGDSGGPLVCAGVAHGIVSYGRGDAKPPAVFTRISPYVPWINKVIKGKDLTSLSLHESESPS
Experimental: In the present invention, chymase was purified by the methods described in these literatures, and the present compounds were examined for inhibitory activity on chymase, inhibitory action on activation of mast cells and eosinophils, and pharmacological action in animals. Hereinafter, specific methods are described. […] 50 g rat tongue was finely divided by scissors and a scalpel, suspended in 0.1 M phosphate buffer (pH 8.0), and disrupted by a Polytron homogenizer for 5 minutes to prepare a crude chymase enzyme solution. […] The supernatant was applied to an octyl Sepharose 4B column (40×100 mm) previously equilibrated with 0.1 M phosphate buffer (pH 8.0) containing 2 M sodium chloride and 5% ammonium sulfate, and the protein was eluted with a linear concentration gradient of from 2 M to 0 M sodium chloride. […] (D) Measurement of inhibitory activity on chymase (a) Measurement using the synthetic substrate The synthetic chymase substrate was used for measurement of the inhibitory activity on the rat chymase as a subtrate, and the fluorescence of formed aminomethylcoumarin after reaction was measured by a spectrophotometer. […] The test was conducted several times. Chymase was prepared for each test in the manner described above. The compounds examined were compounds prepared in the above-described examples. […] Succinyl leucyl leucyl valyl tyrosyl methylcoumarylamide (for rat […] angiotensin I (for human and dog chymase)

Human cathepsin G = molecular target: T2, Human cathepsin G (Homo sapiens, UniProt P08311); test: Inhibitory activity on proteases other than chymase: human cathepsin G; conditions: succinyl alanyl alanyl propyl phenylmethylcoumarylamide substrate; read-out: 50% Inhibitory concentration toward Human cathepsin G
T2 sequence (P08311 21-255): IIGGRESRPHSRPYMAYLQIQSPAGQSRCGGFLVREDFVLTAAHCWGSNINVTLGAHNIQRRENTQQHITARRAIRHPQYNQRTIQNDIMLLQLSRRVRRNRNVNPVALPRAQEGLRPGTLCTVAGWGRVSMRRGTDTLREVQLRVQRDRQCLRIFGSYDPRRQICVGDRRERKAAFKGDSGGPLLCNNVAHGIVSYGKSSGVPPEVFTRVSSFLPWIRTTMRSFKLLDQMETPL
Experimental: (E) Measurement of inhibitory activity on proteases other than chymase
(§1) The inhibitory activity of the present compounds on human elastase, human cathepsin G, human urokinase, human thrombin, human plasmin, and human factor Xa was determined using their corresponding synthetic substrates in the same manner as for chymase. All the above proteases were those commercially available from Boehringer Mannheim or purified by a combination of known methods. The synthetic substrates were those produced by Peptide Renkyusho. The synthetic substrates for the respective proteases are as follows.
Human cathepsin G Succinyl alanyl alanyl propyl phenylmethyl-
The test was conducted several times. Chymase was prepared for each test in the manner described above. The compounds examined were compounds prepared in the above-described examples.

Human urokinase = Human urokinase (Homo sapiens, UniProt P00749); test: Inhibitory activity on proteases other than chymase: human urokinase; conditions: pyridyl glycyl arginyl methylcoumarylamide substrate; read-out: 50% Inhibitory concentration toward Human urokinase
Experimental: as §1, with “(E) Measurement of inhibitory activity on proteases other than chymase The inhibitory” for “The inhibitory”, “as follows. |Human urokinase Pyridyl glycyl arginyl methylcoumarylamide The test was conducted several times. Chymase was prepared for each test in the manner described above. The compounds examined were compounds prepared in the above-described examples.” for “as follows.”

human chymase = molecular target: T3, human chymase (Homo sapiens, UniProt P23946); test: Inhibitory activity on human chymase (angiotensin I as substrate); conditions: for IC50: substrate angiotensin I, pH 8.0, 37° C., 60 min, read-out: Human Chymase (IC50: nM), 50% inhibitory concentration
T3 construct: 60 g human tonsils were finely divided by scissors and a scalpel; from tissue; host or cells: human tonsils
T3 sequence (P23946 22-247): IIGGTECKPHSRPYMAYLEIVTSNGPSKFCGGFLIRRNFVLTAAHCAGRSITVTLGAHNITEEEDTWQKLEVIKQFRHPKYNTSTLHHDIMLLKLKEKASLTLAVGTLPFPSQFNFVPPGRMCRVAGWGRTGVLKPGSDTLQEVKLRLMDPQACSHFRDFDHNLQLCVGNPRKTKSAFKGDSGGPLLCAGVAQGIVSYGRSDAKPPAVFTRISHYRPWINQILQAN
Excerpt: It is known that chymase is present in tissues of various animals, and its isolation and purification methods are described in Anal. Biochem., 137, 449 (1984) and FEBS Letters, 323, 119 (1993). In the present invention, chymase was purified by the methods described in these literatures, and the present compounds were examined for inhibitory activity on chymase, inhibitory action on activation of mast cells and eosinophils, and pharmacological action in animals. Hereinafter, specific methods are described. 50 g rat tongue was finely divided by scissors and a scalpel, suspended in 0.1 M phosphate buffer (pH 8.0), and disrupted by a Polytron homogenizer for 5 minutes to prepare a crude chymase enzyme solution. […] The supernatant was applied to an octyl Sepharose 4B column (40×100 mm) previously equilibrated with 0.1 M phosphate buffer (pH 8.0) containing 2 M sodium chloride and 5% ammonium sulfate, and the protein was eluted with a linear concentration gradient of from 2 M to 0 M sodium chloride. An active fraction decomposing succinyl leucyl leucyl valyl tyrosyl methylcumarylamide (hereinafter referred to as the synthetic chymase substrate, a product of Peptide Kenkyusho) was recovered and concentrated and this product was used as a purified rat chymase in the following activity measurement. (B) Preparation of human chymase 60 g human tonsils were finely divided by scissors and a scalpel, suspended in 0.1 M phosphate buffer (pH 8.0), and A-disrupted by a Polytron homogenizer for 5 minutes to prepare a crude chymase enzyme solution. It was centrifuged at 22000×g for 30 minutes, and the precipitates were used as a chymase enzyme fraction. […] The supernatant was concentrated by an ultrafiltration membrane, then applied to […] column (6.0×300 mm), and eluted with 0.1 M phosphate buffer (pH 8.0). An active fraction decomposing the synthetic chymase substrate was recovered and concentrated and this product was used as a purified human chymase in the following activity measurement. (D) Measurement of inhibitory activity on chymase (b) Measurement using angiotensin I as substrate The inhibitory activity on the human chymase and dog chymase was measured using angiotensin I (Peptide Kenkyusho) as substrate besides the above synthetic substrate. […] After the end of the reaction, produced angiotensin II was immediately measured by high performance liquid chromatography to determine the activity of the chymase to calculate 50% inhibitory concentration (IC50: nM). The test was conducted several times. Chymase was prepared for each test in the manner described above. The compounds examined were compounds prepared in the above-described examples. […] 50% Inhibitory concentration (IC50: nM) of each compound toward rat chymase, dog […] human […] Substrate: Succinyl leucyl leucyl valyl tyrosyl methylcoumarylamide (for rat […] angiotensin I (for human and dog chymase)

[1] = substrate succinyl leucyl leucyl valyl tyrosyl methylcoumarylamide, pH 8.0, 37° C., 15 min, read-out: Rat Chymase (IC50: nM), 50% inhibitory concentration

Row | SMILES | IC50 (rat chymase; [1]) | IC50 (Human cathepsin G) | IC50 (Human urokinase) | inhibitory activity on human chymase, in words (human chymase) | IC50 (human chymase) | IC50 (rat chymase)
1 | CC(=O)Nc1cnc(-c2ccccc2)n(CC(=O)NC(Cc2ccccc2)C(=O)C(=O)CCCOc2ccccn2)c1=O (centres unmarked) [Compound 80, 2-(5-Acetylamino-6-oxo-2-phenyl-1,6-dihydropyrimidine1-yl)-N-{2,3-dioxo-1-phenylmethyl-6-(-2-pyridyloxy)}hexyl-acetamide] | 52 nM | 18 nM | > 10000 nM | strong inhibitory activity on human chymase | 0.9 nM | 
2 | Nc1cnc(-c2ccccc2)n(CC(=O)NC(Cc2ccccc2)C(=O)C(=O)CCCn2ccccc2=O)c1=O (centres unmarked) [Compound 73, 2-(5-Amino-6-oxo-2-phenyl-1,6-dihydropyrimidine-1-yl)-N-{2,3-dioxo-1-phenylmethyl-6-(2-oxo-1,2-dihydropyridine-1-yl)}hexylacetamide hydrochloride] | 550 nM |  |  | strong inhibitory activity on human chymase | 46 nM | 
3 | O=CNc1cnc(-c2ccccc2)n(CC(=O)NC(Cc2ccccc2)C(=O)C(=O)CCCOc2ccccn2)c1=O (centres unmarked) [Compound 79, 2-(5-Formylamino-6-oxo-2-phenyl-1,6-dihydropyrimidine-1-yl)-N-{2,3-dioxo-1-phenylmethyl-6-(2-pyridyloxy)}hexylacetamide] | 19 nM | 420 nM | > 10000 nM | strong inhibitory activity on human chymase | 2.4 nM | 
4 | O=C(Cn1c(-c2ccccc2)ncc(NS(=O)(=O)NCc2ccccc2)c1=O)NC(Cc1ccccc1)C(=O)C(=O)CCCOc1ccccn1 (centres unmarked) [Compound 82, 2-(5-Benzylaminosulfonylamino-6-oxo-2-phenyl-1,6-dihydropyrimidine-1-yl)-N-{2,3-dioxo-1-phenylmethyl-6-(2-pyridyloxy)}hexylacetamide] |  | 19 nM | > 10000 nM | strong inhibitory activity on human chymase | 0.74 nM | 19 nM
5 | CCCCC(=O)C(=O)C(Cc1ccccc1)NC(=O)Cn1c(-c2ccccc2)ncc(N)c1=O (centres unmarked) [Compound 44] | 79 nM |  |  |  | 146 nM | 
6 | CC(C)(C)OC(=O)Nc1cnc(-c2ccccc2)n(CC(=O)NC(Cc2ccccc2)C(=O)C(=O)CCCOc2ccccn2)c1=O (centres unmarked) [Compound 74, 2-(5-t-Butyloxycarbonylamino-6-oxo-2-phenyl-1,6-dihydropyrimidine-1-yl)-N-{2,3-dioxo-6-(2-pyridyloxy)-1-phenylmethyl}hexylacetamide] | 510 nM | 90 nM | > 10000 nM | strong inhibitory activity on human chymase | 11 nM | 
7 | CCOC(=O)CCCC(=O)C(=O)C(Cc1cccc(F)c1)NC(=O)Cn1c(-c2ccccc2)ncc(N)c1=O (centres unmarked) [Compound 54] | 45 nM |  |  | strong inhibitory activity on human chymase | 36 nM | 
8 | CC(C)(C)OC(=O)Nc1cnc(-c2ccccc2)n(CC(=O)NC(Cc2ccccc2)C(=O)C(=O)CCCn2ccccc2=O)c1=O (centres unmarked) [Compound 72, 2-(5-t-Butyloxycarbonylamino-6-oxo-2-phenyl-1,6-dihydropyrimidine-1-yl)-N-{2,3-dioxo-6-(2-oxo-1,2-dihydropyridine-1-yl)-1-phenylmethyl}hexylacetamide] | 2100 nM | 540 nM | > 10000 nM | strong inhibitory activity on human chymase | 90 nM | 
9 | Nc1cnc(-c2ccccc2)n(CC(=O)NC(Cc2ccccc2)C(=O)C(=O)CCCc2ccccc2)c1=O (centres unmarked) [Compound 40] | 46 nM | > 10000 nM | > 10000 nM |  | 190 nM | 
10 | CC(=O)C(=O)C(Cc1cccc(F)c1)NC(=O)Cn1c(-c2ccccc2)ncc(N)c1=O (centres unmarked) [Compound 52, 2-(5-Amino-6-oxo-2-phenyl-1,6-dihydropyrimidine-1-yl)-N-{1-(3-fluorophenyl)methyl-2,3-dioxo}butylacetamide] | 190 nM | 350 nM | > 10000 nM |  | 120 nM | 
